Experimental data: patent US4694011A, “Novel 7-hydroxy-indoles” (Roussel Uclaf, priority 1985, dated 1987)

Columns and labels:
[1] = tested on: dopaminergic stimulating activity at the central level; experiment: Rotation behavior after unilateral lesion of the nigra-striated bundle by 6-hydroxydopamine; assay type: in vivo, rat; conditions: male rats, intraperitoneal, 5 mg/kg
Experimental: A. Rotation behavior after unilateral lesion of the nigra-striated bundle by 6-hydroxydopamine
Male rats weighing about 220 g were injured in the nigra-striated dopaminergic bundle by Ungerstedt's method [Acta physiol. Scand. 1971, Vol. 82 suppl. p. 367-69 93] modified by unilateral injection of 9.2 μg of 6-hydroxydopamine hydrochloride in solution in 4 μl of physiological solution containing 0.5 mg/ml of ascorbic acid. The test products were administered intraperitoneally and the animals treated, on average 6, were placed individually in a rotometer which enabled the counting of the number of rotations carried out by each animal in the opposite direction to the injured side.

[2] = tested on: dopaminergic agonist action at the central level; experiment: Stereotype behavior; assay type: in vivo, rat; conditions: male rats, intraperitoneal, 50 mg/kg
Experimental: The tests were carried out on groups of 5 male rats weighing 150 to 180 g and each animal was placed individually in a barred cage (29×25×17 cm) containing a few wood shavings. The test product was administered intraperitoneally and the behavior of the animals was noted every half-hour for 5 hours with the rating of Halliwell et al [Brit. J. Pharmacol. 1964, Vol. 23, 330-350]. The animal was asleep (0), it was awake but immobile (1), it turned in the cage (2), it sniffed the cover (3), it licks the walls (4), it touched the wood shavings or the bars of the cage with its teeth (5), it bit the shavings or the bars of the cage (6).

arterial pressure = experiment: Hypotensive activity (arterial pressure, anesthetized rats); assay type: in vivo, rat (WISTAR); conditions: male WISTAR rats anesthetized with nembutal, intravenous, 1 mg/kg
Experimental: The hypotensive activity was studied on male rats of the WISTAR strain weighing about 300 g and anesthetized with nembutal (50 mg/kg by intraperitoneal route). The product tested was administered intravenously into the jugular vein and the carotidien arterial pressure was measured before and after administration of the product tested.

[3] = tested on: average arterial pressure; experiment: Test for direct vasodilatory activity of vascular relaxing postsynaptic activity (demedullated rats, angiotensine II); assay type: in vivo, rat (Sprague-Dawley)
Experimental: D. Test for Direct Vasodilatary Activity of Vascular Relaxing Postsynaptic-activity
Rats of the Sprague-Dawley strain weighing 320-350 g were anesthetized with pentobarbital (50 mg/kg by intraperitoneal injection) and after the positioning of a carotidien catheter to measure the arterial pressure and a jugular catheter for the injection of the test compounds and possible antagonists, the animals were demedullated with a steel rod. This rod was introduced by the right orbital orifice and descended the length of the spinal cord. The animals were then immediately placed under assisted respiration and a few minutes after the arterial pressure was stabilized, the animals received an intravenous perfusion of angiotensine II of […] to increase their average pressure by about 100 mm of mercury. After a plateau was reached, the test substance was injected intravenously every 2 minutes and in cumulated doses. The percentage drop in the average arterial pressure obtained enabled a dose-response curve to be traced reflecting the vasodilatary activity of the compound studied. The preliminary treatment of the animals with different antagonists enabled the mechanism of action of the compound to be determined. The products were tested between 0.001 and 1 mg/kg and Domperidone and propanolol were used as antagonists.

[4] = tested on: force of cardiac contraction; experiment: Positive inotropic activity; assay type: in vivo, rat (Sprague-Dawley); conditions: 10 to 100 mg/kg
Experimental: E. Positive inotropic activity
Rats of Sprague-Dawley strain weighing 300 to 350 g were anesthetized with pentobarbital (50 mg/kg by intraperitoneal injection) and a catheter was placed in the left ventricle to measure the cardiac intraventricular pressure and the dP/dt VG (or rate of variation of the intraventricular pressure). A second arterial catheter placed in the femoral artery enabled the systemic arterial pressure and the cardiac frequency to be registered. The test products and the possible antagonists were injected by a catheter placed in a jugular vein. This model enabled the effect of various substances on the force of cardiac contraction to be evaluated in vivo as a function of the dose and the time.

[5] = tested on: pressure responses to the electrical stimulation; experiment: Presynaptic activity at the vascular level; assay type: in vivo, rat (Sprague-Dawley); conditions: demedullated Sprague-Dawley rats
Experimental: F. Presynaptic activity at the vascular level
Rats of Sprague-Dawley strain weighing 320-350 g were anesthetized with pentobarbital (50 mg/kg by intraperitoneal injection) and after insertion of a carotidien catheter to measure the arterial pressure and a jugular catheter for the injection of the test compounds, the animals were demedullated with a stainless steel rod introduced by the right orbitary orifice. This rod was insulated along its length with the exception of the last five centimeters. As soon as the medulla was destroyed, the animals were placed under assisted respiration. After a period of rest of about 20 minutes, the animals were submitted to electrical stimulations applied between the demedullation rod and a neutral electrode placed under the skin in the thigh region with impulses of 2 msec., frequency of 10 Hz and amplitude of about 20 V for 30 sec. for 5 minutes each. […] The addition of appropriate blockers and the combination of this technique with the modification of dose-response curves to vasoconstricting agents such as noradrenaline enabled the pharmacological profile of the test compound to be determined.

mice = experiment: Acute toxicity; assay type: in vivo; conditions: oral administration
Experimental: The lethal doses LD50 of the different compounds tested were evaluated after oral administration to mice and LD0 is the maximum dose not causing any mortality in 8 days.

[6] = anesthetized Sprague-Dawley rats, jugular vein

Compound | central dopaminergic stimulating activity (conclusion from rotation test) [1] | rotations in the opposite direction to the injured side ([1]; at least ninety minutes) | central dopaminergic agonist action (conclusion from stereotype test) [2] | stereotype movements ([2]; noted every half-hour for 5 hours) | effect on carotidien arterial pressure (arterial pressure) | origin of the vasodilator effect (mechanism) ([3]; Domperidone and propanolol used as antagonists) | minimal effective dose ([3]; Rattus norvegicus, demedullated Sprague-Dawley rats, angiotensine II perfusion, intravenous cumulated doses, tested between 0.001 and 1 mg/kg, read-out: dose from which a dose dependent vasodilator effect occurs) [mg/kg] | positive inotropic effect (conclusion) [4] | blockade by propanolol of the increase of dP/dt and maximal ventricular pressure ([4]; with propanolol) | dP/dt (rate of variation of the intraventricular pressure) [4, 6] | maximal ventricular pressure [4, 6] | site of action linked to the reduction of the responses [5] | pressure responses to the electrical stimulation ([5]; intravenous) | blockade by sulpiride of the reduction of the responses ([5]; with sulpiride) | LD0 (maximum dose not causing any mortality in 8 days) (mice) [mg/kg]
Br.O=C1Cc2c(C3CCCNC3)ccc(O)c2N1 (stereo not shown) [Example 3, 1,3-dihydro-7-hydroxy-4-(3-piperidinyl)-2H-indol-2-one hydrobromide] | substantially deprived of dopaminergic stimulating activity at the central level | practically no rotations | substantially deprived of dopaminergic agonist action at the central level | practically no stereotype movements | slight effect on the arterial pressure | of dopaminergic and α-adrenergic origin | ≥ 0.001 | possessed positive inotropic properties | not otherwise blocked by propanolol | increase of the dP/dt | increase of the dP/dt and of the maximal ventricular pressure | essentially post-synaptic activity | reduction of the responses | not blocked by sulpiride | 400
Br.CCCN1CCCC(c2ccc(O)c3c2CC(=O)N3)C1 (stereo not shown) [Example 4, 1,3-dihydro-7-hydroxy-4-(1-propyl-3-piperidinyl)-2H-indol-2-one hydrobromide] | – | – | – | – | – | – | – | – | – | – | – | – | – | – | 400
